{"source": "patent US5336496A", "about": "“Inhibitor for delta 5-desaturase” (Suntory Limited, priority 1989, dated 1994)", "key": {"[1]": {"biological_target": "T1, Δ^6 -desaturase (Rattus norvegicus, UniProt Q9Z122)", "T1 construct": "The pellet was suspended in the homogenization solution to obtain a microsome solution; from tissue; host or cells: liver microsomes of a male Wistar rat", "T1 sequence (Q9Z122 whole entry, stated change not applied)": "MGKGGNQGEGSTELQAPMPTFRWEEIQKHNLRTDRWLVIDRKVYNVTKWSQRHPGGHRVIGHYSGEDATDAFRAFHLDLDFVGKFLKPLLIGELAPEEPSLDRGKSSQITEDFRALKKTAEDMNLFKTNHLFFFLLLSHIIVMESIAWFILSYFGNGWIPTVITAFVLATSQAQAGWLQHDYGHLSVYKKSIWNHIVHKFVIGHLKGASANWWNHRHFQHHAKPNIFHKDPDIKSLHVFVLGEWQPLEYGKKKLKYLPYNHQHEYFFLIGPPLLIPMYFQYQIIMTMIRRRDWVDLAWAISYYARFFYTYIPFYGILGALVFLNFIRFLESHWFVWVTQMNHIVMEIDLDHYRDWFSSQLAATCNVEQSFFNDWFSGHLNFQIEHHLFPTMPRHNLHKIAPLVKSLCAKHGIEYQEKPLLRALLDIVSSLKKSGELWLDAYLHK", "assay": "Inhibition of Δ6-desaturase in rat liver microsome ([1-14C]-linoleic acid substrate)", "format": "biochemical, rat (Wister male)", "conditions": "read-out: Inhibition on Δ^6 - (%)"}, "[2]": {"biological_target": "T2, Δ^5 -desaturase (Rattus norvegicus, UniProt Q920R3)", "T2 construct": "from tissue; host or cells: liver microsomes of a male Wistar rat", "T2 sequence (Q920R3 whole entry, stated change not applied)": "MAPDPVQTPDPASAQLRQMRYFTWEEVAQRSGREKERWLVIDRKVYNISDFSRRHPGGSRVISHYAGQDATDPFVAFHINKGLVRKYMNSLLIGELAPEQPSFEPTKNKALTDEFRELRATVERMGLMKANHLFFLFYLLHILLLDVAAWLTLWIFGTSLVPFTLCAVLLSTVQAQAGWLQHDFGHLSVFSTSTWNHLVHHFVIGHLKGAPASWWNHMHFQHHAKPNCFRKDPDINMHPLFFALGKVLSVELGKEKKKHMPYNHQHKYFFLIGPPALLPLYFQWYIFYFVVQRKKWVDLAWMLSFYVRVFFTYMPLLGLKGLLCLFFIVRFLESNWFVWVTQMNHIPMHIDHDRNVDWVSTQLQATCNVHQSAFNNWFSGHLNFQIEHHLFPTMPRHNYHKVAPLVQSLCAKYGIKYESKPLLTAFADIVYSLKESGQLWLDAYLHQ", "assay": "Inhibition of Δ5-desaturase in rat liver microsome (conversion of [2-14C]-dihomo-γ-linolenic acid to arachidonic acid)", "format": "biochemical, rat (Wister male)", "conditions": "for inhibition at 30 µg/mL: read-out: Inhibition on Δ^5 -desaturase (%); for specific inhibition of Δ^5 -desaturase / inhibition of Δ^5 -desaturation reaction from dihomo-γ-linolenic acid to arachidonic acid: in words; for specific inhibition of Δ^5 -desaturase: figure legends, compared with Δ^6 -desaturase (and Δ^9 -desaturase for sesamin); for inhibition of Δ^5 -desaturation reaction from dihomo-γ-linolenic acid to arachidonic acid: 0.001 to 0.5 mg/ml, FIGS. 1, 2 and 3, rat liver microsome", "description": "As a homogenization solution, a 50 mM phosphate buffer (pH 7.4) containing 0.15M KCl, 5 mM MgCl2.6H2 O, 1 mM EDTA, 0.25M saccharose and 1.5 mM glutathione was used. The liver of a Wister male rat was perfused with physiological saline and removed, and to the removed liver was added 4-fold by weight of the homogenization solution, and the whole was homogenized. The homogenate was centrifuged at 10,000×g for 20 minutes to obtain a supernatant, which was centrifuged at 100,000×g for one hour to obtain a pellet. The pellet was suspended in the homogenization solution to obtain a microsome solution containing 12.24 mg/ml protein. The above-mentioned procedures were carried out at 4° C.\nTo assay the Δ^5 -desaturase activity 100 μl of the rat liver microsome solution was added to 1 ml of 0.1M phosphate buffer (PH7.4) containing 0.25M saccharose, 0.15M KCl, 1.5 mM glutathione, 45 mM NaF, 0.5 mM nicotinamide, 5 mM MgCl2.6H20 O, 7.5 mM ATP, 0.4 mM CoA.Na2, 1.5 mM NADH, and 100 μM dihomo-γ-linolenic acid containing 0.1 μCi (1.7 nmoles) [2-^14 C]-dihomo-γ-linolenic acid per 1 ml, the mixture was incubated at 37° C for one hour, followed by an addition of 5 ml of ethanol to terminate the reaction. To the reaction mixture was added 1 ml of 4N KOH, and mixture was incubated at 60° C for 30 minutes for saponification. After the reaction, 3 ml of water, 100 μg of dihomo-γ-linolenic acid and 1 ml of 6N HCl were added thereon, and fatty acids in the reaction mixture were extracted twice with 5 ml of hexane. The extract was evaporated in a centrifuge evaporator and 1 ml of ethyl ether/methanol (9:1) was added to the residue, and the fatty acids were methylated with diazomethane. After allowing to stand at a room temperature for 30 minutes, the reaction mixture was evaporated in a centrifuge evaporator to remove the solvent, whereby methyl esters of the resulting fatty acids were obtained. The esters were separated on a 10% AgNO3 silica gel plate using petroleum ether/ethyl ether (1:1) as a developing solvent. Silica gel portions corresponding to the substrate dihomo-γ-linolenic acid and the product arachidonic acid respectively were peeled off, and to 5 ml of toluene-based scintillation fluid solution was added to the silica gel to measure the radioactivity by a scintillation counter. The radioactivity of the generated arachidonic acid was determined by subtracting a radioactivity at the onset of the reaction from a radioactivity after the reaction.\nThe enzyme inhibitory activities of sesamin, episesamin and sesamomolin were measured according to the above-mentioned procedure, except that the reaction mixture contained 0.001 to 0.5 mg/ml sesamin, episesamin or sesamolin. The radioactivity was measured as described above, and the percent inhibition was calculated."}}, "note": "Read-outs that look alike come from different tables or passages of the source.", "data": [{"smiles": "CCCCOCCOCCOCc1cc2c(cc1CCC)OCO2", "note": "[Piperonyl butoxide]", "values": [{"measurement": "inhibition at 30 µg/mL", "setting": "[1]", "value": 0, "unit": "%"}, {"measurement": "inhibition at 30 µg/mL", "setting": "[2]", "value": 32.5, "unit": "%"}]}, {"smiles": "COc1cc(/C=C/C(=O)CC(=O)/C=C/c2ccc(O)c(OC)c2)ccc1O", "note": "[Curcumin]", "values": [{"measurement": "inhibition at 30 µg/mL", "setting": "[1]; 0.03 mg/ml, rat liver microsome", "value": 36.1, "unit": "%"}]}, {"smiles": "c1cc2c(cc1[C@H]1OC[C@H]3[C@@H]1CO[C@@H]3c1ccc3c(c1)OCO3)OCO2", "note": "[Sesamin]", "values": [{"measurement": "inhibition at 30 µg/mL", "setting": "[1]", "value": 0, "unit": "%"}, {"measurement": "specific inhibition of Δ^5 -desaturase", "setting": "[2]", "value": "specifically inhibits"}, {"measurement": "inhibition of Δ^5 -desaturation reaction from dihomo-γ-linolenic acid to arachidonic acid", "setting": "[2]", "value": "inhibited"}, {"measurement": "inhibition at 30 µg/mL", "setting": "[2]", "value": 39.2, "unit": "%"}]}, {"smiles": "c1cc2c(cc1O[C@H]1OC[C@H]3[C@@H]1CO[C@@H]3c1ccc3c(c1)OCO3)OCO2", "note": "[Sesamolin]", "values": [{"measurement": "specific inhibition of Δ^5 -desaturase", "setting": "[2]", "value": "specifically inhibits"}, {"measurement": "inhibition of Δ^5 -desaturation reaction from dihomo-γ-linolenic acid to arachidonic acid", "setting": "[2]", "value": "inhibited"}]}]}
